Columns and labels:
[1] = system: canonical BMP signaling reporter Id1-Luc; test: Id1-luc reporter assay in primary chondrocytes; type: cell-based, mouse
Protocol: (§1) Primary mouse epiphyseal chondrocytes were isolated from neonatal C57BL/6J mice according to known methods (Yasuhara et al., Lab. Invest. 91(12):1739-1752, 2011) and were plated on 48- or 96-well plates and serum-starved overnight. Cultures were co-transfected with canonical BMP signaling reporter Id1-Luc or retinoic acid response element (RARE)-Luc plasmids and phRG-TK (Promega™) using Lipofectamine LTX™ and Plus™ reagent (Invitrogen™) according to the manufacturer's protocol. Twenty four hours later, cells were treated with rhBMP-2 and/or retinoid and incubated for an additional 24 hours. Cells then were harvested and subjected to dual luciferase assay (Promega™). Firefly luciferase activity was normalized to renilla luciferase activity generated by phRG-TK.
Enhancement of BMP-Smad signaling by RARγ antagonists was confirmed by Id1-luc reporter assays. Cells were treated with the indicated doses of CD2665 or MM11253 in the absence or presence of 10 ng/mL rhBMP-2.

[2] = system: BMP signaling (phosphorylated Smad1/5, p38, Erk1/2); test: Immunoblotting of phosphorylated Smad1/5, p38 and Erk1/2 in ATDC5 cells / primary chondrocytes; type: cell-based, mouse; details: in the presence of 10 ng/mL rhBMP-2; each dose tested
Protocol: ATDC5 cells were grown until approximately 70% confluence in Dulbecco's modified Eagle's medium/Ham's nutrient mixture F-12 containing 5% fetal bovine serum (FBS). After serum deprivation (0.3% FBS) for 16 hours, cultures were treated with rhBMP-2 and/or retinoids for 60 minutes and then lysed in SDS-PAGE sample buffer. Cell lysates were denatured, separated onto 10% SDS-page gels and transferred to PVDF membranes (Millipore™, USA). Membranes were incubated overnight at 4° C. with antibodies against phospho-Smad1/5 (Cell Signaling Technology™, 9516, 1:1000), phospho-Smad1/5/8 (Cell Signaling Technology™, 9511, 1:1000), phospho-Erk1/2 (Cell Signaling Technology™, 4370, 1:500), or phospho-p38 (Cell Signaling Technology™, 4511, 1:500), followed by incubation with horseradish peroxidase (HRP)-conjugated secondary antibody (Cell Signaling Technology™, 7074, 1:2000). HRP activity was detected using a SuperSignal™ West Dura Extended Duration Substrate (Thermo Scientific™, USA). Membranes were re-blotted with antibodies against GAPDH (Santa Cruz Biotechnology™, sc-32233, 1:1000) for loading normalization.
RARγ was examined for whether it has cell-autonomous roles on BMP signaling in chondrocytes. […] Levels of phosphorylated Smad1/5, p38 and Erk1/2 were analyzed by immunoblotting. […]

[3] = system: retinoic acid response element (RARE)-Luc; test: RARE-luc reporter assay in primary mouse chondrocytes; type: cell-based; details: 10 nM RA added, 0.3% FBS DMEM
Protocol: as §1
Monitoring activity of RARγ antagonists by RARE reporter assay. Cells were treated with indicated doses of CD2665 or MM11253. To detect the effect of RARγ antagonists in retinoid deficient culture condition (0.3% FBS DMEM), 10 nM RA was added to all cultures in experiments reported in FIG. 8A, FIG. 8B and FIG. 8C.
Primary mouse chondrocytes were isolated and transfected with the RARE-luc reporter gene by reverse transfection according to known methods. Details of the procedure are described in Cong et al., J. Biomater. Sci. Polym. Ed. 26(11):629-643, 2015. […]

Compound | Id1-luc reporter activity ([1]; absence of exogenous rhBMP-2) | Id1-luc reporter activity ([1]; presence of 10 ng/mL rhBMP-2) | pSmad1/5/8 levels (immunoblot) [2] | RARE-luc reporter activity (antagonists) [3]
CC1(C)CCC(C)(C)c2cc(C3(c4ccc5cc(C(=O)O)ccc5c4)SCCS3)ccc21 [MM11253] | slightly increased | significantly enhanced | significantly enhanced | inhibited RARE-luc reporter activity
COCCOCOc1cc2ccc(-c3ccc(C(=O)O)cc3)cc2cc1C12CC3CC(CC(C3)C1)C2 [CD2665] | slightly increased | significantly enhanced | significantly enhanced | inhibited RARE-luc reporter activity
